Test results published in US10245261B2, “Substituted indol-5-ol derivatives and their therapeutic applications” (NantBioScience, Inc., priority 2013, dated 2019).

Key:
Assay in all cases: KinaseProfiler kinase assay
Assay type in all cases: biochemical
[1] = target: PI3 Kinase (p110α(E545K)/p85α)(h) (Homo sapiens, UniProt P42336, E545K)
How it was run: (§1)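 Using a filter-binding 33P format, reactions initiated by MgATP addition proceeded 40 min at room temperature before a 3% phosphoric acid stop. Filtermats were washed three times in 50 mM phosphoric acid and once in methanol, dried and counted.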

LOK(h) = LOK(h) (Homo sapiens, UniProt O94804)
How it was run: as §1

CaMKIIγ(h) = CaMKIIγ(h) (Homo sapiens, UniProt Q13555)
How it was run: as §1

p70S6K(h) = p70S6K(h) (Homo sapiens, UniProt P23443)
How it was run: as §1

PI3KC2γ(h) = PI3KC2γ(h) (Homo sapiens, UniProt O75747)
How it was run: as §1

CHK1(h) = CHK1(h) (Homo sapiens, UniProt O14757)
How it was run: as §1

MRCKα(h) = MRCKα(h) (Homo sapiens, UniProt Q5VT25)
How it was run: as §1

Fer(h) = Fer(h) (Homo sapiens, UniProt P16591)
How it was run: as §1

CaMKIV(h) = CaMKIV(h) (Homo sapiens, UniProt Q16566)
How it was run: as §1

BTK(h) = BTK(h) (Homo sapiens, UniProt Q06187)
How it was run: as §1

LKB1(h) = LKB1(h) (Homo sapiens, UniProt Q15831)
How it was run: as §1

ZAP-70(h) = ZAP-70(h) (Homo sapiens, UniProt P43403)
How it was run: as §1

MST2(h) = MST2(h) (Homo sapiens, UniProt Q13188)
How it was run: as §1

Pim-1(h) = Pim-1(h) (Homo sapiens, UniProt P11309)
How it was run: as §1

PAK4(h) = PAK4(h) (Homo sapiens, UniProt O96013)
How it was run: as §1

AMPKα2(h) = AMPKα2(h) (Homo sapiens, UniProt P54646)
How it was run: as §1

IKKβ(h) = IKKβ(h) (Homo sapiens, UniProt O14920)
How it was run: as §1

SAPK2a(T106M)(h) = SAPK2a(T106M)(h) (Homo sapiens, UniProt Q16539, T106M)
How it was run: as §1

PDK1(h) = PDK1(h) (Homo sapiens, UniProt O15530)
How it was run: as §1

ULK2(h) = ULK2(h) (Homo sapiens, UniProt Q8IYT8)
How it was run: as §1

PAK6(h) = PAK6(h) (Homo sapiens, UniProt Q9NQU5)
How it was run: as §1

IGF-1R(h), activated = IGF-1R(h), activated (Homo sapiens, UniProt P08069)
How it was run: as §1

CDK1/cyclinB(h) = CDK1/cyclinB(h) (Homo sapiens, UniProt P06493)
How it was run: as §1

TrkB(h) = TrkB(h) (Homo sapiens, UniProt Q16620)
How it was run: as §1

EGFR(h) = EGFR(h) (Homo sapiens, UniProt P00533)
How it was run: as §1

IRAK4(h) = IRAK4(h) (Homo sapiens, UniProt Q9NWZ3)
How it was run: as §1

NEK7(h) = NEK7(h) (Homo sapiens, UniProt Q8TDX7)
How it was run: as §1

Rsk1(r) = Rsk1(r) (Rattus norvegicus, UniProt Q63531)
How it was run: as §1

TAO3(h) = TAO3(h) (Homo sapiens, UniProt Q9H2K8)
How it was run: as §1

IKKα(h) = IKKα(h) (Homo sapiens, UniProt O15111)
How it was run: as §1

TGFBR1(h) = TGFBR1(h) (Homo sapiens, UniProt P36897)
How it was run: as §1

HIPK1(h) = HIPK1(h) (Homo sapiens, UniProt Q86Z02)
How it was run: as §1

HIPK1(h), sequence (Q86Z02 whole entry): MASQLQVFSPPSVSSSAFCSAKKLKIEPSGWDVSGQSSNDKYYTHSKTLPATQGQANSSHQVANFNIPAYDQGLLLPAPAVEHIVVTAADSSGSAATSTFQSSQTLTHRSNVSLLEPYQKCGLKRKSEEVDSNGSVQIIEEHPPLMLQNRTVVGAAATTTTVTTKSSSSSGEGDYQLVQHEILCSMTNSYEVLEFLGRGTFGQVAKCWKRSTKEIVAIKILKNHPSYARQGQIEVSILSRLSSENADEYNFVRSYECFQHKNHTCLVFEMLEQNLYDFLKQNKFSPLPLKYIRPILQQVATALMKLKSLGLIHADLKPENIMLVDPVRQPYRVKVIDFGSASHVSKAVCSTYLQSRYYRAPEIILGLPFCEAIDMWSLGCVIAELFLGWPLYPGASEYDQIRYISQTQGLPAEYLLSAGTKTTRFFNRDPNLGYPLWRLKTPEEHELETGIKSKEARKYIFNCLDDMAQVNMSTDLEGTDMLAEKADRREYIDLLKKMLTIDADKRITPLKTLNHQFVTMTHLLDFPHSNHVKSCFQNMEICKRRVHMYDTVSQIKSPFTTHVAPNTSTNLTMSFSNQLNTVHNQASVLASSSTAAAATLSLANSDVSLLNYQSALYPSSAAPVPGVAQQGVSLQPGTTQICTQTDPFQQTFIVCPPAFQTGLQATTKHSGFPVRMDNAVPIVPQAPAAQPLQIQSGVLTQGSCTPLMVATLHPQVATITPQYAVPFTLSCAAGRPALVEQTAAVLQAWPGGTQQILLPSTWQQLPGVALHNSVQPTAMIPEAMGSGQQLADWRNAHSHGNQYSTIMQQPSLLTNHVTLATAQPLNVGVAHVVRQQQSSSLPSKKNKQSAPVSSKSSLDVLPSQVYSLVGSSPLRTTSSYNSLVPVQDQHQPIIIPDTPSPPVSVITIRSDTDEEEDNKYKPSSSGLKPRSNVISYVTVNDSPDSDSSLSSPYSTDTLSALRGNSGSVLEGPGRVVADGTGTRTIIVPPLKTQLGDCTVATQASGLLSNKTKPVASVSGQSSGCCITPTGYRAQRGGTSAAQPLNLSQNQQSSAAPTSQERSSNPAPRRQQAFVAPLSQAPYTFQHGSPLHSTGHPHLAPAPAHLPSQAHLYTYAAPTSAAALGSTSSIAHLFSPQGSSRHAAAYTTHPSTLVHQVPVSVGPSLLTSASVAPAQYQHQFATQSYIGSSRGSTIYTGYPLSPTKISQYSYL
Rsk1(r), sequence (Q63531 whole entry): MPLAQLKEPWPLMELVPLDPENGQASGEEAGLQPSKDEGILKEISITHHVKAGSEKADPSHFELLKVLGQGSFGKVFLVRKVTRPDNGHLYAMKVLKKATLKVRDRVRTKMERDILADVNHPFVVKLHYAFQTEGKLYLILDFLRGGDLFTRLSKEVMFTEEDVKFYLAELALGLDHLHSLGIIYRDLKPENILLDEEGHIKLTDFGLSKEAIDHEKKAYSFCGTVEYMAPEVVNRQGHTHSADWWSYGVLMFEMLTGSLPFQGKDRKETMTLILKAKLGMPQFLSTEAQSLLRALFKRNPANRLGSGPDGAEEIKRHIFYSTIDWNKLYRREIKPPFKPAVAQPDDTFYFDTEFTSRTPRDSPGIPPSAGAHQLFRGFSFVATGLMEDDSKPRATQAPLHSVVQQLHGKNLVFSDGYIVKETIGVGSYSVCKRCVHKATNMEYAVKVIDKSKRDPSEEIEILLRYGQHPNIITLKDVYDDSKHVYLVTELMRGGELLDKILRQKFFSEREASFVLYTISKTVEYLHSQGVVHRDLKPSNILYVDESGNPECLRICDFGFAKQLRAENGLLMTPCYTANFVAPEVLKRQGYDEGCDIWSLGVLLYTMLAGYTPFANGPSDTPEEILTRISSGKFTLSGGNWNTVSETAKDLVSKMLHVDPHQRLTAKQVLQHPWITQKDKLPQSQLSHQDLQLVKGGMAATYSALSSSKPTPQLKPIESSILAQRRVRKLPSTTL
TGFBR1(h), sequence (P36897 34-503): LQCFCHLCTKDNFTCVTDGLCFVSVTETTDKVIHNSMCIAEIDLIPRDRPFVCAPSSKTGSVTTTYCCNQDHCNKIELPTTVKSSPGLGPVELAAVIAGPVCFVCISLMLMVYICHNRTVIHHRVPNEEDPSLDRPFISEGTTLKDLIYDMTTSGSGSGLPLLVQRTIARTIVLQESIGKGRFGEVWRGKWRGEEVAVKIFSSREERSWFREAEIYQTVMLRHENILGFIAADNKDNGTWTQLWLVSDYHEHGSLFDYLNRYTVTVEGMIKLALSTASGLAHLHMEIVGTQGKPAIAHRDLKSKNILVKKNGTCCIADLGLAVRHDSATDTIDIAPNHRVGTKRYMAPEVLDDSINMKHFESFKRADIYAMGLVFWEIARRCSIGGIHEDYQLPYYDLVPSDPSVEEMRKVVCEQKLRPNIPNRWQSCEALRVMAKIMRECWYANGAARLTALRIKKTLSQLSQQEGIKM
p70S6K(h), sequence (P23443 whole entry): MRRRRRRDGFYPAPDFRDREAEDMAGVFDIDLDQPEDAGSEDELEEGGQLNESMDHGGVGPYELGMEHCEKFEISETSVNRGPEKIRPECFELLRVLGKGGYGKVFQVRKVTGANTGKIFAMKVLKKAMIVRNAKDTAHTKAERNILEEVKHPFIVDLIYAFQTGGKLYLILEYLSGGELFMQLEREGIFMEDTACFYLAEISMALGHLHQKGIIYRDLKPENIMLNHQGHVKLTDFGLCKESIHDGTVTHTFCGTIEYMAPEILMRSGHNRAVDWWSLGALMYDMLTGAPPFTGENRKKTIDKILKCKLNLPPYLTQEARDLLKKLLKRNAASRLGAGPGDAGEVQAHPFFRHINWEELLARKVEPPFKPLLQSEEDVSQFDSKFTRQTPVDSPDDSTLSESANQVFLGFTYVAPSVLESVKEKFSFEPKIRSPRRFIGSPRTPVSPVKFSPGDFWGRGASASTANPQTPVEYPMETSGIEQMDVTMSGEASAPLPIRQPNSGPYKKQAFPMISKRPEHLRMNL
NEK7(h), sequence (Q8TDX7 whole entry): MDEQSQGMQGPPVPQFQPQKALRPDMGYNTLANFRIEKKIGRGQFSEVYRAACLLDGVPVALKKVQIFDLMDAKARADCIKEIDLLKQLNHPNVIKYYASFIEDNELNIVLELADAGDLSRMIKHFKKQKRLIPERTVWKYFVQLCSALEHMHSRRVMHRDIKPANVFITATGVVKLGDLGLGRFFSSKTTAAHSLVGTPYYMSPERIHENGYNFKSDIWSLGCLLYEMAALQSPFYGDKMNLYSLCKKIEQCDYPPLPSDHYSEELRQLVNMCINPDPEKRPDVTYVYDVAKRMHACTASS
IKKβ(h), sequence (O14920 whole entry): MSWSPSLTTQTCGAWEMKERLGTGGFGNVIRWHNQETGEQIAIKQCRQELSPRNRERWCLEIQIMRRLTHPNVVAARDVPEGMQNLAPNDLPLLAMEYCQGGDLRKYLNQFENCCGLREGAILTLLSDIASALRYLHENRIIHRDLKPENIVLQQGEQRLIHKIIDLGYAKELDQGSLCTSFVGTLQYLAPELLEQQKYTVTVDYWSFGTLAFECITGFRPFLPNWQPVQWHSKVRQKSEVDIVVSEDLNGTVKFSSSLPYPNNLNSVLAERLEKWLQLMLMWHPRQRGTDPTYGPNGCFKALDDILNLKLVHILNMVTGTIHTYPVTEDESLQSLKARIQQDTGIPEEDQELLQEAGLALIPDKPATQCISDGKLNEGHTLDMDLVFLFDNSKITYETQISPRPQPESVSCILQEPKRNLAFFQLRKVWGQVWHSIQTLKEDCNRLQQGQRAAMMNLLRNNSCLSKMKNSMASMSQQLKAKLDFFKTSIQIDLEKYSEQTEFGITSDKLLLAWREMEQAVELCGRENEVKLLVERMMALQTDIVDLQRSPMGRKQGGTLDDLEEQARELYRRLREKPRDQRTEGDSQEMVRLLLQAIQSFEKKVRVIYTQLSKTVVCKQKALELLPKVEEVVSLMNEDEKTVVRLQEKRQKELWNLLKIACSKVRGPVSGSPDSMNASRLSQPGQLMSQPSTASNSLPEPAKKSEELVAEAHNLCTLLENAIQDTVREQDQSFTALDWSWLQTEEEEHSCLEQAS
CHK1(h), sequence (O14757 whole entry): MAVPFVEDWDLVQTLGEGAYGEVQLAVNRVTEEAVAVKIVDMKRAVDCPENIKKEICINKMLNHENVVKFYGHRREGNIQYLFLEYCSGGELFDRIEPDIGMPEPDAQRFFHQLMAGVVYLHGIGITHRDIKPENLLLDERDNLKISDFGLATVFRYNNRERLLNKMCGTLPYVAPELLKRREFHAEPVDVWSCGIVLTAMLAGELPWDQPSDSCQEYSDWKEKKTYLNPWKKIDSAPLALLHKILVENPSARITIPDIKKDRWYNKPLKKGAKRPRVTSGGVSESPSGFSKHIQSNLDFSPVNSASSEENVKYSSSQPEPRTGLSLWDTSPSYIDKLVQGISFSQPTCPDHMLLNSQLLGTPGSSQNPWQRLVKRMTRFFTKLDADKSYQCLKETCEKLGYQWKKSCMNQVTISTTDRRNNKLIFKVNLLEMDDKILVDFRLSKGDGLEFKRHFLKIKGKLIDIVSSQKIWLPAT
Pim-1(h), sequence (P11309 whole entry): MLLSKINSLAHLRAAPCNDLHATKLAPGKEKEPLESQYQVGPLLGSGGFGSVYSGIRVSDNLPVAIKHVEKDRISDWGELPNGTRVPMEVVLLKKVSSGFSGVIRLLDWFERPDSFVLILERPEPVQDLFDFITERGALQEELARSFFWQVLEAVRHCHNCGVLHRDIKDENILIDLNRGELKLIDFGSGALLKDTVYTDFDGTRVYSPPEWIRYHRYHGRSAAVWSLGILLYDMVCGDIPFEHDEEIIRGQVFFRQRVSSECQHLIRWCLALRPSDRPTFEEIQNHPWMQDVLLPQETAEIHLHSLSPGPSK

SMILES | inhibition at 0.1 µM [1] | inhibition at 0.1 µM (LOK(h)) | inhibition at 0.1 µM (CaMKIIγ(h)) | inhibition at 0.1 µM (p70S6K(h)) | inhibition at 0.1 µM (PI3KC2γ(h)) | inhibition at 0.1 µM (CHK1(h)) | inhibition at 0.1 µM (MRCKα(h)) | inhibition at 0.1 µM (Fer(h)) | inhibition at 0.1 µM (CaMKIV(h)) | inhibition at 0.1 µM (BTK(h)) | inhibition at 0.1 µM (LKB1(h)) | inhibition at 0.1 µM (ZAP-70(h)) | inhibition at 0.1 µM (MST2(h)) | inhibition at 0.1 µM (Pim-1(h)) | inhibition at 0.1 µM (PAK4(h)) | inhibition at 0.1 µM (AMPKα2(h)) | inhibition at 0.1 µM (IKKβ(h)) | inhibition at 0.1 µM (SAPK2a(T106M)(h)) | inhibition at 0.1 µM (PDK1(h)) | inhibition at 0.1 µM (ULK2(h)) | other results
Cc1cc2c(F)c(Oc3nc(Nc4cc(C5CC5)[nH]n4)cc(N4CCN(C)CC4)n3)ccc2[nH]1 [Compound 10] | -2% | 73% | -8% | -10% | 27% | 16% | 2% | 38% | -25% | 50% | 14% | 3% | 24% | -21% | 29% | 90% | 1% | 2% | 13% | 37% | inhibition at 0.1 µM (PAK6(h)): 0%; inhibition at 0.1 µM (IGF-1R(h), activated): 59%; inhibition at 0.1 µM (CDK1/cyclinB(h)): 10%; inhibition at 0.1 µM (TrkB(h)): 103%; inhibition at 0.1 µM (EGFR(h)): -8%; inhibition at 0.1 µM (IRAK4(h)): 37%; inhibition at 0.1 µM (NEK7(h)): 8%; inhibition at 0.1 µM (Rsk1(r)): 16%; inhibition at 0.1 µM (TAO3(h)): 20%; inhibition at 0.1 µM (IKKα(h)): -12%; inhibition at 0.1 µM (TGFBR1(h)): 66%; inhibition at 0.1 µM (HIPK1(h)): -6%
Cc1cc2c(F)c(Oc3nc(Nc4cc(C5CC5)[nH]n4)cc(N4CCNCC4)n3)ccc2[nH]1 [Compound 11, N-(5-cyclopropyl-1H-pyrazol-3-yl)-2-((4-fluoro-2-methyl-1H-indol-5-yl)oxy)-6-(piperazin-1-yl)pyrimidin-4-amine] | 2% | 86% | 22% | 2% | -2% | 0% | -3% | 45% | -1% | 71% | -1% | -13% | 22% | -9% | 23% | 88% | 5% | 3% | 3% | 30% | inhibition at 0.1 µM (PAK6(h)): 35%; inhibition at 0.1 µM (IGF-1R(h), activated): 65%; inhibition at 0.1 µM (CDK1/cyclinB(h)): -1%; inhibition at 0.1 µM (TrkB(h)): 100%; inhibition at 0.1 µM (EGFR(h)): -6%; inhibition at 0.1 µM (IRAK4(h)): 13%; inhibition at 0.1 µM (NEK7(h)): -5%; inhibition at 0.1 µM (Rsk1(r)): 14%; inhibition at 0.1 µM (TAO3(h)): 8%; inhibition at 0.1 µM (IKKα(h)): -3%; inhibition at 0.1 µM (TGFBR1(h)): 47%; inhibition at 0.1 µM (HIPK1(h)): -12%
